# Test results as given in patent US12209081B2 (Katholieke Universiteit Leuven, priority 2020, dated 2025).
# Biological target: mouse TRPM3α2 (mTRPM3) ion channel (Mus musculus (Mouse), UniProt J9SQF3)
# Assay: TRPM3 ion channel driven Ca2+ uptake, Fluo-4 AM assay, mTRPM3alpha2 overexpressing flip-in HEK293 cells stimulated with pregnenolone sulfate
# Assay type: cell-based
# Settings: PS 50 μM, cpds 200-299
# Protocol: Part B Monitoring the TRPM3 Ion Channel Driven Ca^2+ Uptake.
# In order to monitor the inhibition of the mouse TRPM3α2 (mTRPM3) ion channel by the compounds of the invention, a cellular system making use of an mTRPM3alpha2 or hTRPM3 overexpressing cell line (flip-in HEK293) was used. The TRPM3 channel was stimulated/opened with Pregnenolone sulfate (PS) (50 μM) which results in Ca^2+ influx.
# For mTRPM3, the intracellular Ca^2+ was measured with a Calcium responsive dye. Fluor-4 AM ester (Invitrogen). Cells were cultured until a confluence of 80-90%, washed with Versene (Invitrogen) and detached from the surface by a short incubation with 0.05% Trypsin (Invitrogen). The trypsination process was stopped by the addition of complete cell culture medium (DMEM, glutamax, 10% FCS,NEAA,Pen-Strep). Cells were collected and resuspended in Krebs buffer without Calcium at RT.
# Prior the cell seeding (±2000 cells/well into a black, 384 well plate (Greiner)) the diluted compound was added in the assay plate, together with the PS dissolved in Krebs buffer containing Calcium. […] Directly after cell addition the plates were read on an Envision fluorescence reader (Perkin Elmer) by an Excitation of 485 nm and emission at 535 nm.
# Channel inhibition was calculated compared to a non-PS stimulated control versus a condition stimulated with PS (50 μM) with vehicle. The ability of the compounds of the invention to inhibit this activity was determined as: Percentage inhibition=[1-((RFU determined for sample with test compound present—RFU determined for sample with positive control inhibitor) divided by (RFU determined in the presence of vehicle—RFU determined for sample with positive control inhibitor))]*100.
# Chain of mouse TRPM3α2 (mTRPM3) ion channel (J9SQF3 other isoform, or with tags, fused parts or gaps): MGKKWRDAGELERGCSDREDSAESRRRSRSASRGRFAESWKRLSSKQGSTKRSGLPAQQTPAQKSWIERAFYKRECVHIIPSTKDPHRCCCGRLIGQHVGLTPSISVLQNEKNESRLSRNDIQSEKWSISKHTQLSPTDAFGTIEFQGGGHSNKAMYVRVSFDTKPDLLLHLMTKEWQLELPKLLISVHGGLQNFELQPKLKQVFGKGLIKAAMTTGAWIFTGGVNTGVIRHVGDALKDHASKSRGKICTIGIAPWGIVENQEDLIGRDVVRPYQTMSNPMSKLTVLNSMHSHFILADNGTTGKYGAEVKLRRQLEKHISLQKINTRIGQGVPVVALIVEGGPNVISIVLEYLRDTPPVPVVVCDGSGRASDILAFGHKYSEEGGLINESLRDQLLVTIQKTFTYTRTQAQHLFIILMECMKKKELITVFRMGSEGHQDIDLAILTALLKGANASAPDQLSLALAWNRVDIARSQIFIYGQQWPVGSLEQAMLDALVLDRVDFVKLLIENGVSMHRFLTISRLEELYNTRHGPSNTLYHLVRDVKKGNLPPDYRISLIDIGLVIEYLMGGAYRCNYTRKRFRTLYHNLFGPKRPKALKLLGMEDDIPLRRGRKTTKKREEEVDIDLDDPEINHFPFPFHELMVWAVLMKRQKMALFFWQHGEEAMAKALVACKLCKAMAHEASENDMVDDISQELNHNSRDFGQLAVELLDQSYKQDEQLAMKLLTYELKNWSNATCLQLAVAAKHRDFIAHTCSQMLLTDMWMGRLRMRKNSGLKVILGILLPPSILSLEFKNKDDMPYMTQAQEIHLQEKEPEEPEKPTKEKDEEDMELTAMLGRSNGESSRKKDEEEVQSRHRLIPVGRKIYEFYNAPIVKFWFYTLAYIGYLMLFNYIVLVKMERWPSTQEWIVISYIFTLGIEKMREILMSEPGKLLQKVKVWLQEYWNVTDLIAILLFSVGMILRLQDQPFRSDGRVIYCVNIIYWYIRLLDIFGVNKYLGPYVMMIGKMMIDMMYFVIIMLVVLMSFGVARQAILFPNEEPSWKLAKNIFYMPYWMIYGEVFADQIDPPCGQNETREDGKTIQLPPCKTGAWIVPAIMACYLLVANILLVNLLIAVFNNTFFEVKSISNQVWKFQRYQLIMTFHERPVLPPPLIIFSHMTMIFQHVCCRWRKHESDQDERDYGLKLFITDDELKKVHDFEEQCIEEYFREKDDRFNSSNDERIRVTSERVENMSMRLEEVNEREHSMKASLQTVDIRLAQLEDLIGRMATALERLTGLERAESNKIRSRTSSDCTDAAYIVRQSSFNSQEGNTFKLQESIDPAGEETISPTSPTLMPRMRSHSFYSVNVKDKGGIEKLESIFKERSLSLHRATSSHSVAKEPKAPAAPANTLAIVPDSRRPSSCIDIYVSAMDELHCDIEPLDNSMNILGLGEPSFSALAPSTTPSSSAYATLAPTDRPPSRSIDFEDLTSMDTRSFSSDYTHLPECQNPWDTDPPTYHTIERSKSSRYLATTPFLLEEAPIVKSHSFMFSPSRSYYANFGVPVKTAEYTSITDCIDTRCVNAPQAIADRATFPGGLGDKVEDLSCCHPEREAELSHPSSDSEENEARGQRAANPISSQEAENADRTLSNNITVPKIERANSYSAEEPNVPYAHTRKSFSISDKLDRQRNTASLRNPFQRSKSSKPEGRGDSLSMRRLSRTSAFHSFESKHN
row,Structure (SMILES),IC50
1,"Cc1oc2ccc(OCc3nccn3C)cc2c1C(=O)NC1CCNCC1(F)F (single isomer, unassigned) [cpd 205-En 1]",1 to 20 µM
2,"CCOc1ncccc1COc1ccc2oc(C)c(C(=O)NC3(CO)CCOCC3)c2c1 [compound 206, 5-((2-ethoxypyridin-3-yl)methoxy)-N-(4-(hydroxymethyl)tetrahydro-2H-pyran-4-yl)-2-methyl-benzofuran-3-carboxamide]",< 1 µM
3,"Cc1ncccc1COc1ccc2oc(C)c(C(=O)N[C@@H](CO)C(N)=O)c2c1 [compound 284, (S)-N-(1-amino-3-hydroxy-1-oxopropan-2-yl)-2-methyl-5-((2-methylpyridin-3-yl)methoxy)benzofuran-3-carboxamide]",< 1 µM

# Same assay, conditions: PS 50 μM, cpds 300-399
row,Structure (SMILES),IC50
1,"Cc1oc2ccc(OCc3cccnc3C(F)(F)F)cc2c1C(=O)N[C@@H]1C(=O)NC[C@H]1O [compound 390, N-((3S,4R)-4-hydroxy-2-oxopyrrolidin-3-yl)-2-methyl-5-((2-(trifluoromethyl)pyridin-3-yl)methoxy)benzofuran-3-carboxamide]",< 1 µM
2,"COC[C@H](NC(=O)c1c(C)oc2ccc(OCc3cnc(C)s3)cc12)C(N)=O [compound 303, (S)-N-(1-amino-3-methoxy-1-oxopropan-2-yl)-2-methyl-5-((2-methylthiazol-5-yl)methoxy)benzofuran-3-carboxamide]",< 1 µM
3,"Cc1ncsc1COc1ccc2oc(C)c(C(=O)NCC3(F)COC3)c2c1 [compound 385, N-((3-fluorooxetan-3-yl)methyl)-2-methyl-5-((4-methylthiazol-5-yl)methoxy)benzofuran-3-carboxamide]",< 1 µM
4,"Cc1ncsc1COc1ccc2oc(C)c(C(=O)NCC3(C#N)CC3)c2c1 [compound 371, N-((1-cyanocyclopropyl)methyl)-2-methyl-5-((4-methylthiazol-5-yl)methoxy)benzofuran-3-carboxamide]",< 1 µM
5,"CNC(=O)C1(NC(=O)c2c(C)oc3ccc(OCc4cnc(C)s4)cc23)CCC1 [compound 318, 2-methyl-N-(1-(methylcarbamoyl)cyclobutyl)-5-((2-methylthiazol-5-yl)methoxy)benzofuran-3-carboxamide]",< 1 µM
6,"Cc1oc2ccc(OCc3cccnc3N(C)C)cc2c1C(=O)NC1(CO)CCOCC1 [compound 344, 5-((2-(dimethylamino)pyridin-3-yl)methoxy)-N-(4-(hydroxymethyl)tetrahydro-2H-pyran-4-yl)-2-methylbenzofuran-3-carboxamide]",< 1 µM

# Same assay, conditions: PS (50 μM) stimulated, cpd 001-199
row,Structure (SMILES),IC50
1,"Cc1oc2ccc(OCc3cccs3)cc2c1C(=O)NC1CCN(C)CC1 [compound 041, 2-methyl-N-(1-methylpiperidin-4-yl)-5-(thiophen-2-ylmethoxy)benzofuran-3-carboxamide]",< 1 µM
2,"Cc1oc2ccc(OCc3ccccn3)cc2c1C(=O)NC1CCNC1=O (centres unmarked) [compound 026, 2-methyl-N-(2-oxopyrrolidin-3-yl)-5-(pyridin-2-ylmethoxy)benzofuran-3-carboxamide]",< 1 µM
3,"Cc1oc2ccc(OCc3cccnc3C(F)(F)F)cc2c1C(=O)NC1COCC1O (single isomer, unassigned) [147-Dia 1-En 1, N-(4-hydroxytetrahydrofuran-3-yl)-2-methyl-5-((2-(trifluoromethyl)pyridin-3-yl)methoxy) -benzofuran-3-carboxamide]",< 1 µM
4,"Cc1cc2oc(C)c(C(=O)NC3CCNCC3(F)F)c2cc1OCc1cccnc1C(F)(F)F (single isomer, unassigned) [179-En 1, N-(3,3-difluoropiperidin-4-yl)-2,6-dimethyl-5-((2-(trifluoromethyl)pyridin-3-yl)methoxy)benzo-furan-3-carboxamide]",1 to 20 µM
5,"Cc1oc2ccc(OCc3ccc4cnccc4c3)cc2c1C(=O)NC1CCN(C)CC1 [compound 061, 5-(isoquinolin-6-ylmethoxy)-2-methyl-N-(1-methylpiperidin-4-yl)benzofuran-3-carboxamide]",> 20 µM

# Same assay, conditions: PS (50 μM) stimulated, cpds. 400-499
row,Structure (SMILES),IC50
1,"COc1ncccc1COc1ccc2oc(C)c(C(=O)NC3(CO)CC3)c2c1 [compound 421, N-(1-(hydroxymethyl)cyclopropyl)-5-((2-methoxypyridin-3-yl)methoxy)-2-methylbenzofuran-3-carboxamide]",< 1 µM
2,"Cc1oc2ccc(OCc3cccnc3C(F)(F)F)cc2c1C(=O)NC1(C(N)=O)CC1 [compound 475, N-(1-carbamoylcyclopropyl)-2-methyl-5-((2-(trifluoromethyl)pyridin-3-yl)methoxy)benzofuran-3-carboxamide]",< 1 µM
3,"Cc1ncc(COc2ccc3oc(C)c(C(=O)NC4(CO)CC4)c3c2)s1 [compound 418, N-(1-(hydroxymethyl)cyclopropyl)-2-methyl-5-((2-methylthiazol-5-yl)methoxy)benzofuran-3-carboxamide]",< 1 µM

# Same assay, conditions: PS (50 μM) stimulated, cpds. 500-599
row,Structure (SMILES),IC50
1,"Cc1oc2ccc(OCc3ccc(F)cn3)cc2c1C(=O)NC1CCNCC1(F)F (single isomer, unassigned) [cpd 568-En 1]",< 1 µM
2,"Cc1oc2ccc(OCc3cccnc3O)cc2c1C(=O)NC1CCNCC1(F)F (single isomer, unassigned) [cpd 564-En 1]",< 1 µM
3,"Cc1oc2ccc(OCc3ccnn3C)cc2c1C(=O)NC1(C(N)=O)COC1 [compound 579, N-(3-carbamoyloxetan-3-yl)-2-methyl-5-((1-methyl-1H-pyrazol-5-yl)methoxy)benzofuran-3-carboxamide]",< 1 µM
4,"Cc1oc2ccc(OCc3nccs3)cc2c1C(=O)NC1(CO)COC1 [compound 527, N-(3-(hydroxymethyl)oxetan-3-yl)-2-methyl-5-(thiazol-2-ylmethoxy)benzofuran-3-carboxamide]",< 1 µM
5,"COc1ncccc1COc1ccc2oc(C)c(C(=O)NC3(CO)COC3)c2c1 [compound 528, N-(3-(hydroxymethyl)oxetan-3-yl)-5-((2-methoxypyridin-3-yl)methoxy)-2-methylbenzofuran-3-carboxamide]",< 1 µM
6,"Cc1oc2ccc(OCc3nccs3)cc2c1C(=O)NC1CCNCC1(F)F (single isomer, unassigned) [cpd 560-En 1]",< 1 µM
7,"Cc1oc2ccc(OCc3ccc(OCCO)cn3)cc2c1C(=O)NC1CCNCC1(F)F (single isomer, unassigned) [cpd 567-En 1]",> 20 µM
8,"Cc1ncsc1COc1ccc2oc(C)c(C(=O)NC(=O)C3(N(C)C)COC3)c2c1 [compound 508, N-(3-(dimethylamino)oxetane-3-carbonyl)-2-methyl-5-((4-methylthiazol-5-yl)methoxy)benzofuran-3-carboxamide]",< 1 µM
9,"Cc1oc2ccc(OCc3ncccc3F)cc2c1C(=O)NC1CCNCC1(F)F (single isomer, unassigned) [cpd 566-En 2]",1 to 20 µM
10,"COc1cccc(COc2ccc3oc(C)c(C(=O)NC4CCNCC4(F)F)c3c2)n1 (single isomer, unassigned) [cpd 570-En 1]",< 1 µM
11,"Cc1oc2ccc(OCc3nccs3)cc2c1C(=O)NC1(C(N)=O)COC1 [compound 582, N-(3-carbamoyloxetan-3-yl)-2-methyl-5-(thiazol-2-ylmethoxy)benzofuran-3-carboxamide]",< 1 µM

# Same assay, conditions: PS (50 μM) stimulated, cpds. 608-666
row,Structure (SMILES),IC50
1,"Cc1oc2ccc(OCc3nccn3C)cc2c1C(=O)NC1COCC1(F)F (single isomer, unassigned) [cpd 641-En 1]",1 to 20 µM
2,"Cc1ncsc1COc1ccc2oc(C)c(C(=O)N(CCO)C3CCC3)c2c1 [compound 660, N-cyclobutyl-N-(2-hydroxyethyl)-2-methyl-5-((4-methylthiazol-5-yl)methoxy)benzofuran-3-carboxamide]",> 20 µM

# Same assay, conditions: PS (50 μM) stimulated, cpds. 667-751
row,Structure (SMILES),IC50
1,"Cc1oc2ccc(OCc3cccnc3OC3CC3)cc2c1C(=O)N[C@@H](CO)C(N)=O [compound 710, (S)-N-(1-amino-3-hydroxy-1-oxopropan-2-yl)-5-((2-cyclopropoxypyridin-3-yl)methoxy)-2-methylbenzofuran-3-carboxamide]",< 1 µM
2,"Cc1oc2ccc(OCc3ccccn3)cc2c1C(=O)NC(C)(CO)C(N)=O (single isomer, unassigned) [cpd 738-En 1]",< 1 µM
3,"Cc1oc2ccc(OCc3ccn(C)n3)cc2c1C(=O)N[C@@H](CO)C(N)=O [compound 686, (S)-N-(1-Amino-3-hydroxy-1-oxopropan-2-yl)-2-methyl-5-((1-methyl-1H-pyrazol-3-yl)methoxy)benzofuran-3-carboxamide]",< 1 µM
4,"Cc1oc2ccc(OCc3scnc3C(F)(F)F)cc2c1C(=O)N[C@@H](CO)C(N)=O [compound 694, (S)-N-(1-Amino-3-hydroxy-1-oxopropan-2-yl)-2-methyl-5-((4-(trifluoromethyl)thiazol-5-yl)methoxy)benzofuran-3-carboxamide]",< 1 µM
5,"Cc1nc(C)c(COc2ccc3oc(C)c(C(=O)N[C@@H](CO)C(N)=O)c3c2)o1 [compound 678, (S)-N-(1-Amino-3-hydroxy-1-oxopropan-2-yl)-5-((2. 4-dimethyloxazol-5-yl)methoxy)-2-methylbenzofuran-3-carboxamide]",< 1 µM
